# Columns and labels:
# [1] = Population semiphysiologically based 9-compartment TK model (NLME) of plasma and urine data in piglets; conditions: for tvK25, rate constant liver to plasma for the glucuronide, Mean / tvK50, glucuronide elimination rate constant from plasma to urine, Mean / tvK56, distribution rate constant, Mean / tvK65, distribution rate constant, Mean / tvK105, rate constant of glucuronide formed by enterocytes absorbed into the systemic circulation, Mean / tvV, volume of the central compartment, Mean: bootstrap mean; for tvK25, rate constant liver to plasma for the glucuronide, Median / tvK50, glucuronide elimination rate constant from plasma to urine, Median / tvK56, distribution rate constant, Median / tvK65, distribution rate constant, Median / tvK105, rate constant of glucuronide formed by enterocytes absorbed into the systemic circulation, Median / tvV, volume of the central compartment, Median: bootstrap median; for mean volume of the central compartment: pig, in vivo; for tvV, volume of the central compartment, Mean / tvV, volume of the central compartment, Median: population primary parameter
# Method: The NLME model was therefore developed by combining the plasma and urinary data sets from the five TK experiments carried out in piglets, except for the urinary BPA concentration obtained after oral administration of BPA.
# Different compartmental models and submodels were tested and compared using the likelihood ratio test (LRT). The primary parameters of the model, namely the volumes of distribution ( VBPA , VBPAG , VBPS , VBPSG ) and the first-order rate constants ( Kij ) and their associated precisions [standard error (SE)] were estimated by minimizing an objective function value (OFV) expressed as minus twice the log of the likelihood estimation ( −2LL ).
# The between-subject variability (BSV) of the parameters was evaluated using the exponential model θparameter_i=θtv_parameter×exp(ηi) , where θparameter_i is the parameter estimated for the i^th individual, θtv_parameter is the typical population value of the parameter, and ηi is the deviation associated with the i^th individual from the corresponding value of the parameter at the population level. The distribution of ηi was assumed to be normal with a mean of 0 and a variance ω² . The BSV was reported as a coefficient of variation (CV) in the original scale CV(%)=100× exp (ω^2)−1 .
# The residual variance was modeled using a combined additive and proportional error model Cobsij=Cpredij(1+ε1ij)+ε2ij where Cobsij and Cpredij are respectively the j^th observed and predicted concentrations for the i^th individual and ε1ij and ε2ij the multiplicative and additive residual errors.
# The bootstrap tool (20 replicates) was used to evaluate the mean, median, SE, and coefficient of variation of the parameter estimates. The predictive ability of the model was checked graphically by plotting Visual Predictive Check plots to compare the observed data with the selected quantiles (here 20th, 50th and 80th percentiles) of data simulated using the model and obtained from 200–1,000 replicates from each animal based on the structure of the original data (i.e., dosing, timing and number of samples).
# For the LRT test, the critical value of the χ^2 distribution considered for a given nominal risk and a given number of degrees of freedom was obtained using the Excel function CHISQ.INV.RT().
# Figure 1. Schematic representation of the compartmental model. […] The link between the two central compartments was modeled with a compartment (CP2) that should be viewed as the liver. […] The fraction of absorbed BPA that is not hepatically transformed reaches the CP3 via K23 . The exchanges between CP2 and CP3 are bilateral, K32 being the rate constant between CP3 and CP2 and K23 the rate constant between CP2 and CP3. […] It was assumed that no phase-two metabolite other than BPAG (BPSG) was formed.
# (12) Bioavailability=K12/K12+K110+K10×(1−K25/K25+K23) with K10 , K12 , K110 , K23; K25 as defined above.
# [2] = Cumulative urinary excretion after IV and oral dosing in piglets; conditions: for fraction of parent dose recovered in urine as glucuronide, mean±SD / fraction of parent dose recovered in urine as glucuronide, range: by 24 h
# Method: Blood samples were collected in heparinized polypropylene tubes, immediately chilled in ice and centrifuged for 10 min at 3,000×g at 4°C, and the supernatant plasma was stored in polypropylene tubes at −20°C until assay. Total urine was filtered through a nylon mesh ( 250μm ) and collected in glass containers and chilled in ice. The volume of each urine sample and the sampling time were recorded. A urine sample was immediately chilled in ice and centrifuged for 10 min at 3,000×g at 4°C and stored at −20°C until assayed.
# Analytes were quantified by Acquity UPLC-MS/MS (Waters Corporation).
# All TK analyses were performed using the Phoenix® NLME (version 8.0; Pharsight Corporation). The plasma mass concentrations were converted into molar concentrations before analysis.
# [3] = Noncompartmental toxicokinetic analysis of plasma after IV dosing in piglets; conditions: for time after which plasma concentrations were below the LOQ: after IV BPA and BPS administration; for time of maximal plasma glucuronide concentration: after IV BPA and BPS dosing; for Cmax/dose / AUC0-tlast/dose / Tmax: plasma, mean±SD; for Cmax/dose: IV BPA 21.9 or 20 μmol/kg (n=15) or IV BPS 20 μmol/kg (n=16), glucuronides after parent dosing; for AUC0-tlast/dose: IV BPA or BPS dosing; for Tmax: glucuronide after IV BPA or BPS dosing
# Method: Table 1 summarizes the protocol of the experiments and the plasma and urine datasets further considered for TK analyses. A first experiment (Exp. 1) was performed in 8 male piglets age 42 d ( 20.8±1.6kg BW) to investigate oral BPA TK. […] BPA data obtained after IV BPA administrations had already been used to evaluate human BPA clearance using an allometric approach ([Collet et al. 2015]).
# For the IV administrations, BPA powder was dissolved in ethanol–propylene glycol (1:49, vol:vol) at 50mg/mL (Exp.1 and 2) and in ethanol–saline (1:2, vol:vol) at 23mg/mL (Exp. 5).
# During the first 24 h of sampling, the piglets were housed individually in stainless steel cages.
# (§1) The plasma analytes concentration–time data from individual piglets were used to derive the maximum concentration (Cmax), and the time to maximum concentration (Tmax). The area under the plasma concentration–time curves from dosing time to the time of the last measurable concentration ( AUC0–tlast ) were calculated using the linear trapezoidal rule (Equation 1). (1) AUC0–tlast=∑0tlast(Ci−1+Ci/2)×(ti−ti−1) where Ci is the concentration obtained at the time i ( ti ).
# (§2) The area under the plasma concentration time curve from t=0 to infinity ( AUC0–inf ) was obtained using Equation 2. (2) AUC0–inf=AUC0–tlast+AUCtlast–inf where AUCtlast–inf is the area extrapolated from the last observation to infinity, calculated according to Equation 3: (3) AUCtlast–inf=Clast/λz where Clast is the last observed quantifiable plasma concentration, and λz is the slope of the terminal phase, as estimated by linear regression using the best fit option of Phoenix®.
# [4] = Noncompartmental toxicokinetic analysis of plasma after oral (gavage) dosing in piglets; conditions: plasma, mean±SD; for Cmax/dose: oral BPA 438 or 200 μmol/kg (n=12) or oral BPS 40 or 200 μmol/kg (n=10); for AUClast/dose / Tmax: oral BPA or BPS dosing
# Method: Table 1 summarizes the protocol of the experiments and the plasma and urine datasets further considered for TK analyses.
# For administrations by gavage, BPA powder was dissolved in ethanol–corn oil (1:9, vol:vol) at 100mg/mL (Exp. 1).
# as §1, §2
# [5] = IV BPA (n=7) or IV BPS (n=16) dosing
# [6] = oral BPA (n=4) or oral BPS (n=10) dosing
Compound,"tvK25, rate constant liver to plasma for the glucuronide, Mean [1]","tvK50, glucuronide elimination rate constant from plasma to urine, Mean [1]","tvK56, distribution rate constant, Mean [1]","tvK65, distribution rate constant, Mean [1]","tvK105, rate constant of glucuronide formed by enterocytes absorbed into the systemic circulation, Mean [1]","tvK25, rate constant liver to plasma for the glucuronide, Median [1]","tvK50, glucuronide elimination rate constant from plasma to urine, Median [1]","tvK56, distribution rate constant, Median [1]","tvK65, distribution rate constant, Median [1]","tvK105, rate constant of glucuronide formed by enterocytes absorbed into the systemic circulation, Median [1]",mean volume of the central compartment [1],"tvV, volume of the central compartment, Mean [1]","tvV, volume of the central compartment, Median [1]","fraction of parent dose recovered in urine as glucuronide, mean±SD [2, 5]","fraction of parent dose recovered in urine as glucuronide, range ([2]; IV BPA or BPS dosing)","fraction of parent dose recovered in urine as glucuronide, mean±SD [2, 6]","fraction of parent dose recovered in urine as glucuronide, range ([2]; oral BPA or BPS dosing)",time after which plasma concentrations were below the LOQ [3],time of maximal plasma glucuronide concentration [3],Cmax/dose [3],further results
"CC(C)(c1ccc(O)cc1)c1ccc(O[C@@H]2O[C@H](C(=O)O)[C@@H](O)[C@H](O)[C@H]2O)cc1 [BPAG, Bisphenol A glucuronide]",137.08 h⁻¹,2.750 h⁻¹,1.45 h⁻¹,0.015 h⁻¹,0.207 h⁻¹,91.87 h⁻¹,2.547 h⁻¹,1.45 h⁻¹,0.015 h⁻¹,0.217 h⁻¹,0.11 L/kg,0.107 L/kg,0.112 L/kg,97.0±27.6%,63.1–135.7%,62.2±15.8%,49.5–80.2%,12 to 24 h,about 20 min,1.80±0.85 μmol/L per μmol/kg BW,AUC0-tlast/dose [3]: 2.04±0.58 μmol×h/L per μmol/kg; Tmax [3]: 21 ± 20.4 min; Cmax/dose [4]: 0.58±0.34 μmol/L per μmol/kg BW; AUClast/dose [4]: 1.75±0.73 μmol×h/L per μmol/kg BW; Tmax [4]: 74.4 ± 64.2 min
"O=S(=O)(c1ccc(O)cc1)c1ccc(O)cc1 [BPS, bisphenol S]",,,,,,,,,,,,,,,,,,,,,"part of the dose eliminated in urine ([2]; 3 h after dosing): About half; unconjugated compound in urine, fraction of IV dose ([2]; IV BPA and BPS doses): 0.027±0.0084%"
"O=C([O-])[C@H]1O[C@@H](Oc2ccc(S(=O)(=O)c3ccc(O)cc3)cc2)[C@H](O)[C@@H](O)[C@@H]1O.[Na+] [BPSG, Bis(4-hydroxyphenyl) Sulfone O-β-D-Glucuronide-Sodium Salt]",66.6 h⁻¹,1.818 h⁻¹,0.730 h⁻¹,0.006 h⁻¹,0.534 h⁻¹,62.147 h⁻¹,1.832 h⁻¹,0.655 h⁻¹,0.006 h⁻¹,0.523 h⁻¹,0.14 L/kg,0.135 L/kg,0.137 L/kg,76.8±20.1%,36.3–107.9%,86.5±23.9%,65.5–126.8%,8 to 12 h,about 20 min,2.55±0.58 μmol/L per μmol/kg BW,"fraction of the IV BPSG dose recovered in urine, range ([2]; 24 h post dosing, IV BPSG): 40.1–69.8%; mean fraction of the IV BPSG dose recovered in urine ([2]; 24 h post dosing, IV BPSG): 59.0±9.96%; AUC0-tlast/dose [3]: 2.59±0.77 μmol×h/L per μmol/kg; Tmax [3]: 17.4 ± 11.4 min; Cmax/dose [4]: 2.94±4.78 μmol/L per μmol/kg BW; AUClast/dose [4]: 2.87±0.99 μmol×h/L per μmol/kg BW; Tmax [4]: 43.8 ± 18 min"
